Laboratory results taken from US12486298B2, “Fucosyltransferase specific inhibition using fucose mimetics” (THE FLORIDA INTERNATIONAL UNIVERSITY BOARD OF TRUSTEES, priority 2020, dated 2025).
Entries after “also recorded” stand apart in the source; their conditions may differ.

Key:
Format in all cases: cell-based, human
THP-1 cells = experiment: Inhibition of native cell surface fucosylation of THP-1 cells (flow cytometry); details: for CD15 (Le^X) expression / CD15s (sLe^X) expression: 48 hours incubation, 24- and 48-hour timepoints
Description: (§1) For inhibition of cell surface fucosylation, a Symphony A3 (BD Biosciences) was utilized for flow cytometry and the data acquired was analyzed using FlowJo Software (Treestar). Cells were stained using antibodies specific to CD15s (CSLEX1) from BD biosciences and CD15 (LeX) from Biolegend.
The THP-1 cell line (a human monocytic leukemia cell line) was incubated for 48 hours with either Compound 31, Compound 6A, Compound 26, or with 2F-Ac-Fucose (positive control) in RPMI 1640 medium containing 10% FBS. Cells were evaluated by flow cytometry at 24- and 48-hour timepoints for expression of CD15 (Le^X), and CD15s (sLe^X) (FIG. 11).
(§2) In each case, expression of the relevant marker (CD15 or CD15s) was quantified as the median channel fluorescence (MFI), which was then divided by the MFI of Control cells incubated in media containing DMSO at levels equivalent to that for each inhibitor tested (i.e., Y-axis are values of (MFI of inhibitor-treated cells/MFI of DMSO-incubated Control cells)×100%).

HL60 cells = experiment: Inhibition of native cell surface fucosylation of HL60 cells (flow cytometry); details: 72 hours incubation, 24-, 48-, 72-hour timepoints, 6A and 26 at 64 or 256 uM
Description: as §1
The HL60 cell line (a human promyelocytic leukemia cell line) was incubated for 72 hours in RPMI 1640 medium containing 10% FBS with either 2F-Ac-Fucose (positive control), Compound 6A (64 or 256 uM), or Compound 26 (64 or 256 uM). Cells were evaluated by flow cytometry at 24-, 48-, and 72-hour timepoints of incubation for expression of CD15s (sLe^X) and CD15 (Le^X) (FIG. 10B).
as §2

KG1a cells = experiment: Inhibition of native cell surface fucosylation of KG1a cells (flow cytometry); details: 72 hours incubation, 24-, 48-, 72-hour timepoints, 64 or 256 uM
Description: as §1
Cells were evaluated at 24-, 48-, and 72-hour timepoints of incubation to assess for effects on expression of CD15s (sLe^X) by flow cytometry (FIG. 10A).
as §2

SMILES | concentration range inhibiting creation of CD15s (THP-1 cells) | concentration range inhibiting synthesis of CD15 (THP-1 cells) | CD15s (sLe^X) synthesis (THP-1 cells; 3 μM) | CD15 (Le^X) synthesis (THP-1 cells; 50 μM) | CD15s (sLe^X) synthesis (THP-1 cells; 50 μM) | CD15 (Le^X) expression (THP-1 cells) | CD15s (sLe^X) expression (THP-1 cells) | CD15 (Le^X) expression (HL60 cells) | CD15s (sLe^X) expression (HL60 cells) | CD15s (sLe^X) expression (KG1a cells) | time by which CD15s inhibition is evident (THP-1 cells) [h] | concentration inhibiting creation of CD15s (THP-1 cells; within 48 hours)
CC(=O)OC1O[C@@H](C)[C@@H](OC(C)=O)[C@@H](OC(C)=O)[C@@H]1F (stereo partly drawn) [2F-Ac-Fucose, reference compound] | micromolar range | micromolar range | not at 3 μM concentration | inhibition of synthesis | inhibition of synthesis | inhibits synthesis of both markers | inhibits synthesis of both markers | loss of both CD15s and CD15 expression | loss of both CD15s and CD15 expression | – | – | –
CCOC(=O)C1=C(C23CCC4CC(CC(C4)C2)C3)OC2OC(C)C(OC(C)=O)C(OC(C)=O)C2S1 (stereo not drawn) [Compound 26] | nanomolar range; also recorded: nM range | – | – | – | – | does not inhibit CD15 expression | inhibit creation of CD15s | only inhibited the formation of CD15s | inhibited the formation of CD15s | inhibited CD15s expression similar to that of 2F-Ac-Fucose | ≤ 24 | –
COC(=O)Cc1ccc2c(c1)SC1C(O2)OC(C)C(OC(C)=O)C1OC(C)=O (stereo not drawn) [Compound 31] | – | – | – | – | – | does not inhibit CD15 expression | specificity for inhibiting the creation of CD15s; also recorded: inhibits the creation of CD15s | – | – | – | ≤ 48 | below 50 uM
CC(=O)OC1C(C)OC2Oc3ccc(CC(=O)NCCOCCOCCN)cc3SC2C1OC(C)=O.O=C(O)C(F)(F)F (stereo not drawn) [Compound 6A] | nanomolar range; also recorded: nM range | – | – | – | – | does not inhibit CD15 expression | inhibit creation of CD15s | only inhibited the formation of CD15s | inhibited the formation of CD15s | inhibited CD15s expression similar to that of 2F-Ac-Fucose | ≤ 24 | –
